These results are taken from patent publication EP4790066A1, “GLP-1R/GIPR/GCGR TRIPLE AGONIST ANALOGUE AND USE THEREOF” (Shenzhen Bay Laboratory, priority 2023, dated 2025).

Each structure is given as a SMILES string. *1 amine or outer side, *2 acyl side, *3 side chain or, on linkers, in order; H or OH if unused. Where a SMILES comes first, the peptide text is derived from it. Bridges are numbered along the chain shown (N, C = ends). [ ]: non-standard residue; d: D form. X1 = O=C(O)CCCCCCCCCCCCCCCCCCC(=O)N[C@@H](CCCCNC(=O)COCCOCCNC(=O)COCCOCCNC(=O)CCC(=O)N(CCNC(=O)C[*:1])CCNC(=O)C[*:2])C(=O)O; Phe(2-F) = N[C@@H](Cc1ccccc1F)C(=O)O; αMeL = CC(C)C[C@](C)(N)C(=O)O; αMeK = C[C@](N)(CCCCN)C(=O)O; αMeS = C[C@](N)(CO)C(=O)O; Aib = CC(C)(N)C(=O)O

Common to all, as to type: cell-based
The target in one test is T1, GLP-1R (Homo sapiens, UniProt P43220).
T1 construct: expressed in transfected cells
T1 sequence (P43220 24-463, species assumed): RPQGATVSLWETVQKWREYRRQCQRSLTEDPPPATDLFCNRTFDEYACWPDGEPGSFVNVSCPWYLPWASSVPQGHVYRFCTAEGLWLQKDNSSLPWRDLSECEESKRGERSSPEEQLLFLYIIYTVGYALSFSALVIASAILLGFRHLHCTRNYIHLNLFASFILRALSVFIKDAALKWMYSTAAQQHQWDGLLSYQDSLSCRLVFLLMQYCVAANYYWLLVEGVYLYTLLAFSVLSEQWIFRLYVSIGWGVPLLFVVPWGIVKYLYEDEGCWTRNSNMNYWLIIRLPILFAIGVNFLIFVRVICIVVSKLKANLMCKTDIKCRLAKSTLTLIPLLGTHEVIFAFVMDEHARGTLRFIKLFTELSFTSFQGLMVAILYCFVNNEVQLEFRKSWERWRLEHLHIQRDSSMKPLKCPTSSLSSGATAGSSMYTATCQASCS
The test can be described thus: CreLuc method (CRE-luciferase reporter), HEK293/pGM-CREB-L-Luc/GLP-1R pool. The settings on record: 6 h incubation, read-out: EC50 (pM) for each receptor GLP-1R. Here is the method:
(§1) 1. Insulinotropic analogues can bind to the target receptor on the cell membrane, activate the cAMP response element (CRE), and initiate the expression of downstream luciferase. The expression level is positively correlated with the biological activity of the analogue being tested. After activation, luciferase substrate is added for chemiluminescence detection, and the luminescence intensity is determined to characterize the biological activity of the test compounds. Therefore, the target peptide derivatives (or polypeptide derivatives, i.e., TG1-TG94) prepared in Example 1 and Example 2 can be tested by the CreLuc method. The specific steps are as follows: The stably transfected cell lines HEK293/pGM-CREB-L-Luc/GLP-1R pool, HEK293/pGM-CREB-L-Luc/GIPR pool, and 293HEK/pGM-CREB-L-Luc/GCGR pool were constructed. […] The corresponding test cells were digested (1 min), dispersed by pipetting, and centrifuged (1000 rpm, 5 min). The culture medium was discarded, and the cells were resuspended in freestyle medium, centrifuged again, collected, and counted. The cells were then diluted to a cell density of 5 x 10^5 cells/mL and then added to the detection wells of a 384-well plate (40 µL/20,000 cells/well). Echo was used to add the corresponding analyte dilution series. The cell plate was incubated at 37°C and 5% CO2 for 6 h, then ONE-GLO (20 µL/well) was added for detection. It was kept in the dark for 3 min, then a chemiluminescent microplate reader was used for determination. The plate was read within 30 min, and the determination results were recorded. […] Table 3: EC50 values for target peptide derivatives

In another test the target is T2, GCGR (Homo sapiens, UniProt P47871).
T2 construct: expressed in transfected cells
T2 sequence (P47871 26-477, species assumed): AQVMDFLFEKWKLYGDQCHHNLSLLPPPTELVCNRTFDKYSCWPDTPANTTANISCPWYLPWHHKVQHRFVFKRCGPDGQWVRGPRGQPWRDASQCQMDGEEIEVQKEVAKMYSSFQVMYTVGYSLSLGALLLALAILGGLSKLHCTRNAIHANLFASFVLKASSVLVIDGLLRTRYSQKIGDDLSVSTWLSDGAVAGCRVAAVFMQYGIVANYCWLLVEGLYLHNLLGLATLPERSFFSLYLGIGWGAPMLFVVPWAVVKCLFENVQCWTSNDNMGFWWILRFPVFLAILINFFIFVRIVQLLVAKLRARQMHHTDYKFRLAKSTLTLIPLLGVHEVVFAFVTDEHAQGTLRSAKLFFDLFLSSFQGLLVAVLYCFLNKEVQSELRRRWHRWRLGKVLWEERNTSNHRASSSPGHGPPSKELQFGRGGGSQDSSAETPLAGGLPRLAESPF
The test is described as follows: CreLuc method (CRE-luciferase reporter), 293HEK/pGM-CREB-L-Luc/GCGR pool. To be noted: 6 h incubation, read-out: EC50 (pM) for each receptor GCGR. As to the method:
as §1
A general note: A reporter such as luciferase makes a cellular process visible.

The target of the next test is T3, GIPR (Homo sapiens, UniProt P48546).
T3 construct: expressed in transfected cells
T3 sequence (P48546 22-466): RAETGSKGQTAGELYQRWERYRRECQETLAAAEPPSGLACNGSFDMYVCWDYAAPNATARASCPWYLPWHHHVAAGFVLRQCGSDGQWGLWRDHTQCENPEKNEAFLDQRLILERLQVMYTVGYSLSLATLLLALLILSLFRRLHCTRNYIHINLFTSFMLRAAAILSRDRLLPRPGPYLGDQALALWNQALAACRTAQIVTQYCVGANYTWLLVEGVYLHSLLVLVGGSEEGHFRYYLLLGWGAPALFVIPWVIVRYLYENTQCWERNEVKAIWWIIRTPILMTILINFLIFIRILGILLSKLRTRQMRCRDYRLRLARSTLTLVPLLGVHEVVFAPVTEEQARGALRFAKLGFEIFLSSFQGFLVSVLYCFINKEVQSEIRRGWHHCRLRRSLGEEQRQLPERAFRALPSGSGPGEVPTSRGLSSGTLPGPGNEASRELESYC
The test is described as follows: CreLuc method (CRE-luciferase reporter), HEK293/pGM-CREB-L-Luc/GIPR pool. To be noted: 6 h incubation, read-out: EC50 (pM) for each receptor GIPR. Here is the method: as §1

A word on the EC50: it is the concentration giving half of the maximal effect. On to `CC[C@H](C)[C@@H]1NC(=O)[C@H](Cc2ccccc2)NC(=O)[C@@H](NC(=O)[C@H](CCC(N)=O)NC(=O)[C@H](CCC(N)=O)NC(=O)[C@H](C)NC(=O)[C@H](CCCCNC(C)=O)NC(=O)[C@](C)(CCCCN)NC(=O)[C@H](CC(=O)O)NC(=O)[C@H](CC(C)C)NC(=O)[C@H](CC(C)C)NC(=O)[C@@H](NC(=O)[C@](C)(CO)NC(=O)[C@H](Cc2ccc(O)cc2)NC(=O)[C@H](CC(=O)O)NC(=O)[C@H](CO)NC(=O)[C@@H](NC(=O)[C@H](Cc2ccccc2F)NC(=O)[C@@H](NC(=O)CNC(=O)[C@H](CCC(N)=O)NC(=O)C(C)(C)NC(=O)[C@@H](N)Cc2ccc(O)cc2)[C@@H](C)O)[C@@H](C)O)[C@@H](C)CC)CSCC(=O)NCCN(C(=O)CCC(=O)NCCOCCOCC(=O)NCCOCCOCC(=O)NCCCC[C@H](NC(=O)CCCCCCCCCCCCCCCCCCC(=O)O)C(=O)O)CCNC(=O)CSC[C@@H](C(=O)NCC(=O)NCC(=O)N2CCC[C@H]2C(=O)N[C@@H](CO)C(=O)N[C@@H](CO)C(=O)NCC(=O)N[C@@H](C)C(=O)N2CCC[C@H]2C(=O)N2CCC[C@H]2C(=O)N2CCC[C@H]2C(=O)N[C@@H](CO)C(N)=O)NC(=O)[C@H](CC(C)C)NC(=O)[C@H](CC(C)C)NC(=O)[C@H](Cc2ccc(O)cc2)NC(=O)[C@H](CCC(=O)O)NC1=O` [TG56] (H-Y[Aib]QGT[Phe(2-F)]TSDY[αMeS]ILLD[αMeK]K(Ac)AQQCFIEYLLCGGPSSGAPPPS-NH2; linker 21-28 via X1), for which the EC50 was found to be 197 pM at GLP-1R, 681 pM at GCGR and 39.5 pM on GIPR.

On to `CC[C@H](C)[C@@H]1NC(=O)[C@H](Cc2ccccc2)NC(=O)[C@@H](NC(=O)[C@H](Cc2c[nH]cn2)NC(=O)[C@H](CCC(N)=O)NC(=O)[C@H](C)NC(=O)[C@H](CCCCNC(C)=O)NC(=O)[C@H](CCCCN)NC(=O)[C@H](CC(=O)O)NC(=O)[C@H](CC(C)C)NC(=O)[C@](C)(CC(C)C)NC(=O)[C@@H](NC(=O)[C@H](CO)NC(=O)[C@H](Cc2ccc(O)cc2)NC(=O)[C@H](CC(=O)O)NC(=O)[C@H](CO)NC(=O)[C@@H](NC(=O)[C@H](Cc2ccccc2)NC(=O)[C@@H](NC(=O)CNC(=O)[C@H](CCC(N)=O)NC(=O)C(C)(C)NC(=O)[C@@H](N)Cc2ccc(O)cc2)[C@@H](C)O)[C@@H](C)O)[C@@H](C)CC)CSCC(=O)NCCN(C(=O)CCC(=O)NCCOCCOCC(=O)NCCOCCOCC(=O)NCCCC[C@H](NC(=O)CCCCCCCCCCCCCCCCCCC(=O)O)C(=O)O)CCNC(=O)CSC[C@@H](C(=O)NCC(=O)NCC(=O)N2CCC[C@H]2C(=O)N[C@@H](CO)C(=O)N[C@@H](CO)C(=O)NCC(=O)N[C@@H](C)C(=O)N2CCC[C@H]2C(=O)N2CCC[C@H]2C(=O)N2CCC[C@H]2C(=O)N[C@@H](CO)C(N)=O)NC(=O)[C@H](CC(C)C)NC(=O)[C@H](CC(C)C)NC(=O)[C@H](Cc2ccc(O)cc2)NC(=O)[C@H](CCC(=O)O)NC1=O` [TG32] (H-Y[Aib]QGTFTSDYSI[αMeL]LDKK(Ac)AQHCFIEYLLCGGPSSGAPPPS-NH2; linker 21-28 via X1), for which the EC50 at GLP-1R is 34 pM; on GCGR, 197 pM; at GIPR, 11.7 pM.

For `CC[C@H](C)[C@@H]1NC(=O)[C@H](Cc2ccccc2)NC(=O)[C@@H](NC(=O)C(C)(C)NC(=O)[C@H](CCC(N)=O)NC(=O)[C@H](C)NC(=O)[C@H](CCCCNC(C)=O)NC(=O)[C@H](CCCCN)NC(=O)[C@H](CC(=O)O)NC(=O)[C@H](CC(C)C)NC(=O)[C@](C)(CC(C)C)NC(=O)[C@@H](NC(=O)[C@H](CO)NC(=O)[C@H](Cc2ccc(O)cc2)NC(=O)[C@H](CC(=O)O)NC(=O)[C@H](CO)NC(=O)[C@@H](NC(=O)[C@H](Cc2ccccc2F)NC(=O)[C@@H](NC(=O)CNC(=O)[C@H](CCC(N)=O)NC(=O)C(C)(C)NC(=O)[C@@H](N)Cc2ccc(O)cc2)[C@@H](C)O)[C@@H](C)O)[C@@H](C)CC)CCCCNC(=O)CN(C(=O)CCCNC(=O)COCCOCCNC(=O)COCCOCCNC(=O)CC[C@H](NC(=O)CCCCCCCCCCCCCCCCCCC(=O)O)C(=O)O)CC(=O)NCCCC[C@@H](C(=O)NCC(=O)NCC(=O)N2CCC[C@H]2C(=O)N[C@@H](CO)C(=O)N[C@@H](CO)C(=O)NCC(=O)N[C@@H](C)C(=O)N2CCC[C@H]2C(=O)N2CCC[C@H]2C(=O)N2CCC[C@H]2C(=O)N[C@@H](CO)C(N)=O)NC(=O)[C@H](CC(C)C)NC(=O)[C@H](CC(C)C)NC(=O)[C@H](Cc2ccc(O)cc2)NC(=O)[C@H](CCC(=O)O)NC1=O` [TG85], the EC50 at GLP-1R was 254 pM; on GCGR it was 330 pM; at GIPR, 61.2 pM.

With `CC[C@H](C)[C@@H]1NC(=O)[C@H](Cc2ccccc2)NC(=O)[C@@H](NC(=O)C(C)(C)NC(=O)[C@H](CCC(N)=O)NC(=O)[C@H](C)NC(=O)[C@H](CCCNC(=N)N)NC(=O)[C@H](CCCCN)NC(=O)[C@H](CC(=O)O)NC(=O)[C@H](CC(C)C)NC(=O)[C@](C)(CC(C)C)NC(=O)[C@@H](NC(=O)[C@H](CO)NC(=O)[C@H](Cc2ccc(O)cc2)NC(=O)[C@H](CC(=O)O)NC(=O)[C@H](CO)NC(=O)[C@@H](NC(=O)[C@H](Cc2ccccc2)NC(=O)[C@@H](NC(=O)CNC(=O)[C@H](CCC(N)=O)NC(=O)C(C)(C)NC(=O)[C@@H](N)Cc2ccc(O)cc2)[C@@H](C)O)[C@@H](C)O)[C@@H](C)CC)CSCC(=O)NCCN(C(=O)CCC(=O)NCCOCCOCC(=O)NCCOCCOCC(=O)NCCCC[C@H](NC(=O)CCCCCCCCCCCCCCCCCCC(=O)O)C(=O)O)CCNC(=O)CSC[C@@H](C(=O)NCC(=O)NCC(=O)N2CCC[C@H]2C(=O)N[C@@H](CO)C(=O)N[C@@H](CO)C(=O)NCC(=O)N[C@@H](C)C(=O)N2CCC[C@H]2C(=O)N2CCC[C@H]2C(=O)N2CCC[C@H]2C(=O)N[C@@H](CO)C(N)=O)NC(=O)[C@H](CC(C)C)NC(=O)[C@H](CC(C)C)NC(=O)[C@H](Cc2ccc(O)cc2)NC(=O)[C@H](CCC(=O)O)NC1=O` [TG35], the EC50 at GLP-1R turned out to be 40.1 pM; at GCGR, 273 pM; at GIPR it was 15.5 pM.

As for `CC[C@H](C)[C@@H]1NC(=O)[C@H](Cc2ccccc2)NC(=O)[C@@H](NC(=O)[C@H](CCC(N)=O)NC(=O)[C@H](CCC(N)=O)NC(=O)[C@H](C)NC(=O)[C@H](CCCCNC(C)=O)NC(=O)[C@H](CCCCN)NC(=O)[C@H](CC(=O)O)NC(=O)[C@H](CC(C)C)NC(=O)[C@](C)(CC(C)C)NC(=O)[C@@H](NC(=O)[C@H](CO)NC(=O)[C@H](Cc2ccc(O)cc2)NC(=O)[C@H](CC(=O)O)NC(=O)[C@H](CO)NC(=O)[C@@H](NC(=O)[C@H](Cc2ccccc2)NC(=O)[C@@H](NC(=O)CNC(=O)[C@H](CCC(N)=O)NC(=O)C(C)(C)NC(=O)[C@@H](N)Cc2ccc(O)cc2)[C@@H](C)O)[C@@H](C)O)[C@@H](C)CC)CSCC(=O)NCCN(C(=O)CCC(=O)NCCOCCOCC(=O)NCCOCCOCC(=O)NCCCC[C@H](NC(=O)CCCCCCCCCCCCCCCCCCC(=O)O)C(=O)O)CCNC(=O)CSC[C@@H](C(=O)NCC(=O)NCC(=O)N2CCC[C@H]2C(=O)N[C@@H](CO)C(=O)N[C@@H](CO)C(=O)NCC(=O)N[C@@H](C)C(=O)N2CCC[C@H]2C(=O)N2CCC[C@H]2C(=O)N2CCC[C@H]2C(=O)N[C@@H](CO)C(N)=O)NC(=O)[C@H](CC(C)C)NC(=O)[C@H](CC(C)C)NC(=O)[C@H](Cc2ccc(O)cc2)NC(=O)[C@H](CCC(=O)O)NC1=O` [TG33] (H-Y[Aib]QGTFTSDYSI[αMeL]LDKK(Ac)AQQCFIEYLLCGGPSSGAPPPS-NH2; linker 21-28 via X1), the EC50 at GLP-1R came to 23.7 pM; at GCGR it was 96.8 pM; at GIPR, 7.6 pM.
